In one data set the test system is guinea pigs. The data set can be described thus: learned helplessness test in guinea pigs. Particulars: guinea pig. Format: in vivo. The source says: The utility of the compounds for example to treat depression may be shown via a learned helplessness test in guinea pigs, which is used extensively as correlative to antidepressant activity in humans. The learned helplessness test may be carried out as follows: Seventy male Hartley guinea pigs, each weighing about 350–425 gm are fed ad lib, and are housed under a 12-hour light/dark cycle. The procedure consists of two phases: The induction phase and the avoidance training phase. In the induction phase, subjects are placed into standard shuttle cages (20 L×16 W×21 centimeters H) which are fitted with a grid floor. Electrical stimulation (1.25 mA, 10 sec duration) is delivered to the floor of the cage every 90-sec during 1 hour daily sessions. Subjects have no opportunity to escape or to avoid shocks. Induction is conducted for 2 consecutive days.
In avoidance training, testing is also conducted in the shuttle cages, except that the subjects are not returned to the same chamber in which induction had occurred. Additionally, all cages are fitted with a partition with an arch in the center of the cage, through which animals can pass between the left and right halves of the cage. The procedure employed is a standard shuttle avoidance procedure in which a compound, conditioned stimulus (a 10-sec presentation of a tone and turning on of a lamp on the side of the cage that the guinea pig was occupying) serves to indicate presentation of electrical current to the floor of the cage. Shock is presented for a 5 sec period, 5 sec after initiation of the conditioned stimulus. Entry into the opposite side of the shuttle cage via the arched partition prior to shock onset results in the end of the trial (avoidance response). If shock is delivered, entry into the opposite side of the cage results in termination of the shock and CS (escape). Reversal of learned helplessness in the induction subjects correlates to antidepressant activity of the test compound.
Avoidance training, 45-min in duration, is conducted on 2 consecutive days, beginning 48 hr after the final induction session. Seventy subjects are assigned to 1 of 6 groups of 11–12 animals. The groups are as follows:
Groups 2–6 are given induction and avoidance training sessions. Injections are administered immediately following induction sessions and 1 hour prior to avoidance training sessions. A second injection is administered 7–8 hours following the first injection, for a total of 9 injections administered over 5 days. No injections are administered following the final avoidance training session.
Compounds of the present invention may be administered in a volume of 1 mL/kg bwt. Imipramine is dissolved in DI water. The compounds are dissolved in DI water, to which was added a few drops of lactic acid (pH 5.5). […]

The target of data set [1] is 5-HT1B and 5HT1D receptors. The conditions noted are these: saturation studies, guinea pig cortex membranes; read-out: Kd value of [3H]GR125743; cited from earlier work.
The next data set has as its target T1, 5-HT1B receptors (Homo sapiens, UniProt P28222).
T1 construct: expressed in transfected cells; host or cells: CHO (stably transfected), frozen membrane preparations
The data set can be described thus: 5-HT1b binding assay, competition with [3H]-GR125743 on CHO cell membranes. Particulars: CHO membranes expressing 5-HT1B and 5-HT1D receptors. The source says: Other assays that may be used to measure for example affinity of compounds of the present invention for 5HT1B and 5HT1D receptors are described in J. Med. Chem 41:1218–1235, 1228 (1998) and J. Med. Chem 42:4981–5001, (1999) and incorporated by reference herein. These assays may be used with some modifications: Frozen membrane preparations of a stably transfected chinese hamster ovary (CHO) cell line expressing 5-HT1B receptors and 5-HT1D receptors are thawed rapidly, briefly vortexed, and diluted in assay buffer (AB) containing 50 mM Tris-HCl, 4 mM MgCl2, 4mM CaCl2, 1 mM EDTA, and adjusted to pH 7.4 with NaOH. Final protein concentrations are −0.185 mg/ml for 5-HT1B, and 0.4 mg/ml for 5-HT1D membranes. Test compounds are evaluated in competition assays using [^3H]-GR125743 (Amersham). The ligand concentration in both assays was 0.27 nM. […] The 5-HT1B and 5-HT1D assays are performed simultaneously on one 96-well assay plate, one drug/compound per plate. Ten serial dilutions (1 uM to 4 pM, final concentration) of compound are prepared in DMSO from 10 mM stock solutions. Incubation mixtures are prepared in quadruplicate in 96-deep well assay plates (Matrix 1 ml). […] The plates are then counted on a Packard TopCount to determine CPM's per well. Ki values are determined for each test compound utilizing the graphic and analytical software package, GraphPad Prism. […]

T1 sequence (P28222 whole entry): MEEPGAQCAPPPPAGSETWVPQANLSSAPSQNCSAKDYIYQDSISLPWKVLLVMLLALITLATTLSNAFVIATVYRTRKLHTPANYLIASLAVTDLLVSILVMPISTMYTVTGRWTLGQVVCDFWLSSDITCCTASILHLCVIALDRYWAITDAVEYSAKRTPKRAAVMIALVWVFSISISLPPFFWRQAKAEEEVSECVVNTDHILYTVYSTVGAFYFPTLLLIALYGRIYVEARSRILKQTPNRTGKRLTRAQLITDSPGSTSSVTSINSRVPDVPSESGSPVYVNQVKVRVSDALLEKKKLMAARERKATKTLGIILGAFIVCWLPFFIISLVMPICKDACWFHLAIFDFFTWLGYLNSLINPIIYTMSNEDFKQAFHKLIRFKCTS

For the molecule `CN1CCN(c2cccc3c2OC(C(=O)Nc2ccc(N4CCOCC4)cc2)CC3)CC1` (racemic) [Example 75, 8-(4-Methyl-piperazin-1-yl)-chroman-2-carboxylic acid(4-morpholin-4-yl-phenyl)-amide], the melting point – broadly, the temperature, or range, at which the solid turns liquid – fell in the range of 215 to 216 °C. Still for that read-out and setting: for `CN1CCN(c2cccc3c2OC(C(=O)Nc2ccc(N4CCOCC4)cc2)CC3=O)CC1` (racemic) [Example 78, racemic-8-(4-methyl-piperazin-1-yl)-4-oxo-chroman-2-carboxylicacid (4-morpholin-4-yl-phenyl)-amide] the value was 215 to 216 °C; for `CN1CCN(c2cccc3c2OC(C(=O)Nc2ccc(N4CCOCC4)cc2)CC3=O)CC1` (single isomer, unassigned) [Example 79, 8-(4-Methyl-piperazin-1-yl)-4-oxo-chroman-2-carboxylic acid (4-morpholin-4-yl-phenyl)-amide(fasterrunning isomer)], 216 °C (dec.); for `CN1CCN(c2cccc3c2OC(C(=O)Nc2ccc(N4CCOCC4)cc2)CC3=O)CC1` (single isomer, unassigned) [Example 80, 8-(4-Methyl-piperazin-1-yl)-4-oxo-chroman-2-carboxylic acid (4-morpholin-4-yl-phenyl)-amide(slowerrunning isomer).], 215 °C (dec.). As to `CN1CCN(c2cccc3c2OC(C(=O)Nc2ccc(N4CCOCC4)cc2)CC3)CC1` (single isomer, unassigned; (+)) [Example 76, (+)-8-(4-Methyl-piperazin-1-yl)-chroman-2-carboxylic acid (4-morpholin-4-yl-phenyl)-amide], the melting point was in the range of 206 to 207 °C. The same measure, in the same setting: for `CN1CCN(c2cccc3c2OC(C(=O)Nc2ccc(N4CCOCC4)cc2)CC3)CC1` (single isomer, unassigned; (-)) [Example 77, (−)-8-(4-Methyl-piperazin-1-yl)-chroman-2-carboxylic acid (4-morpholin-4-yl-phenyl)-amide] the value was 205.5 to 207 °C. Same read-out and setting: for `CN1CCN(c2cccc3c(=O)cc(C(=O)Nc4ccc(N5CCOCC5)cc4)oc23)CC1` [Example 1, 8-(4-methyl-1-piperazinyl)-N-[4-(4-morpholinyl)phenyl]-4-oxo-4H-chromene-2-carboxamide] the value was 217 to 218 °C (dec.); for `CN1CCN(c2cccc3c(=O)cc(-c4nc5ccc(N6CCOCC6)cc5o4)oc23)CC1` [Example 21, 8-(4-Methyl-piperazin-1-yl)-2-(6-morpholin-4-yl-benzooxazol-2-yl)-chromen-4-one], 158.1 to 158.8 °C. The molecule `CN1CCN(c2cccc3c(=O)cc(C(=O)Nc4ccc(N5CCOCC5)cc4O)oc23)CC1` [Example 22, 8-(4-Methyl-piperazin-1-yl)-4-oxo-4H-chromene-2-carboxylic acid (2-hydroxy-4-morpholin-4-yl-phenyl)-amide] came in with a melting point of 248.4 to 249.6 °C.

As to `COc1cc(N2CCN(C)CC2)c2oc(C(=O)Nc3ccc(N4CCOCC4)cc3)cc(=O)c2c1` [Example 31, 6-Methoxy-8-(4-methyl-piperazin-1-yl)-4-oxo-4H-chromene-2-carboxylic acid (4-morpholin-4-yl-phenyl)-amide], the melting point lay within 234 to 236 °C. Further, in the data set with guinea pigs, the “activity in the learned helplessness assay for antidepressant/antianxiety activity” value is reported as “demonstrate activity”. As to `CCC(=O)N1CCN(c2ccc(NC(=O)c3cc(=O)c4cc(OC)cc(N5CCN(C)CC5)c4o3)cc2)CC1` [Example 44, 6-Methoxy-8-(4-methyl-piperazin-1-yl)-4-oxo-4H-chromene-2-carboxylic acid [4-(4-propionyl-piperazin-1-yl)-phenyl]-amide], in the data set with guinea pigs, the “activity in the learned helplessness assay for antidepressant/antianxiety activity” value is listed as “demonstrate activity”.

`COc1cc(N2CCN(C)CC2)c2oc(C(=O)Nc3ccc(N4CCN(C(=O)CCO)CC4)cc3)cc(=O)c2c1` [Example 68, 6-Methoxy-8-(4-methyl-piperazin-1-yl)-4-oxo-4H-chromene-2-carboxylic acid {4-[4-(3-hydroxy-propanoyl)-piperazin-1-yl]-phenyl}-amide] displayed a melting point of 195 to 197 °C.

Regarding `CCS(=O)(=O)N1CCN(c2ccc(NC(=O)c3cc(=O)c4cc(F)cc(N5CCN(C)CC5)c4o3)cc2)CC1` [Example 71, 6-Fluoro-8-(4-methyl-piperazin-1-yl)-4-oxo-4H-chromene-2-carboxylic acid [4-(4-ethanesulfonyl-piperazin-1-yl)-phenyl]-amide], the melting point was in the range of 233 to 234 °C. Also, the “activity in the learned helplessness assay for antidepressant/antianxiety activity” value in the data set on guinea pigs is listed as “demonstrate activity”. Take `CCC(=O)N1CCN(c2ccc(NC(=O)c3cc(=O)c4cc(F)cc(N5CCN(C)CC5)c4o3)cc2)CC1` [Example 72, 6-Fluoro-8-(4-methyl-piperazin-1-yl)-4-oxo-4H-chromene-2-carboxylic acid [4-(4-propionyl-piperazin-1-yl)-phenyl]-amide]: the “activity in the learned helplessness assay for antidepressant/antianxiety activity” value in the data set with guinea pigs was “demonstrate activity”. `CN1CCN(c2cc(F)cc3c(=O)cc(C(=O)Nc4ccc(N5CCN(C(=O)CCO)CC5)cc4)oc23)CC1` [Example 73, 6-Fluoro-8-(4-methyl-piperazin-1-yl)-4-oxo-4H-chromene-2-carboxylic acid {4-[4-(3-hydroxy-propanoyl)-piperazin-1-yl]-phenyl}-amide] gave a melting point of 195 to 199 °C. Regarding `COc1ccc(NC(=O)c2ccc(-c3ccncc3)c(C)c2)cc1N1CCN(C)CC1` [[^3H]-GR125743], the Kd (usually the constant that tells how readily two partners part at equilibrium) is 0.046 ± 0.004 nM in data set [1] and 0.15 to 0.25 nM at 5-HT1B receptors.
